From patent US20260152533A1, “COMBINATION INHIBITORS FOR TREATING FIBROSIS” (Memorial Sloan-Kettering Cancer Center, priority 2021, published 2026)

Tests used:
[1] = system: pancreatic stellate cells (PSCs); experiment: Western blot of PSCs; type: cell-based, mouse; details: PSCs, TGFβ
Description: PSCs were isolated from C57BL/6 mice by differential centrifugation as previously described^49 and their mesenchymal origin was validated by analyzing the expression of various mesenchymal and epithelial markers. MFBs were isolated from FVB/N mice by differential centrifugation as previously described^50. DB7 mouse breast cancer cells were obtained from Alexander Borowsky (University of California Davis Comprehensive Cancer Center, Sacramento, CA, USA) through an MTA to Ohio State University (OSU). KPC (Kras^LSL-G12D; Trp53^LSL-R172H; Pdx1-Cre) mouse PDAC cells were a gift from Scott Lowe (Memorial Sloan Kettering Cancer Center. (MSKCC)). All cells were cultured at 37° C. in 5% carbon dioxide (CO2) and 20% oxygen (O2) and were maintained in Dulbecco's Modified Eagles medium (DMEM) (25 mM D-glucose, 2 mM L-glutamine) supplemented with 10% fetal bovine serum (FBS) (Gemini), 100 units/ml penicillin and 100 μg/ml streptomycin. Primary PSC and MFB cells were kept in culture for no more than ten passages. Experiments with iCAFs and myCAFs were performed as previously described^29. In brief, qPSCs were generated by culturing PSCs in a dome of GFR Matrigel (Corning) in DMEM; iCAFs were generated by culturing PSCs in a dome of GFR Matrigel in DMEM conditioned by KPC cells for 48 h; myCAFs were generated by monolayer culture of PSCs. Differentiation was validated by analyzing the expression of iCAF/myCAF markers^29. […]
Lysates were generated by incubating cells or ground tumors in RIPA buffer (Millipore); […] of cleared lysate were analyzed by SDS-polyacrylamide gel electrophoresis (SDS-PAGE) as previously described^11. […] Quantification of band intensities of collagen I relative to […] or vinculin in tumor allograft experiments was performed with Image Lab software v6.0 (Bio-Rad).

[2] = system: pyruvate carboxylase (PC); experiment: [3,4-13C]-Glc tracing in PSCs (PC activity); type: cell-based, mouse; details: low Gln (20%), TGFβ 48 hours (FIGS. 10J and 10K)
Protocol: Cells were plated in six-well cell culture plates at a concentration aimed to reach 0.5-1×10^6 cells at the time of harvest. For quantification of relative metabolite abundance, cells were cultured with glutamine-free DMEM containing different concentrations of L-glutamine and supplemented with 10% dialyzed FBS and in some experiments were treated with TGFβ for 48 hours. For the [U-^13C]and [3,4-^13C]glucose tracing experiments, cells were cultured as above, and in the last 8 hours media was replaced with DMEM without D-glucose and L-glutamine supplemented with 2 mM or 0.2 mM L-glutamine and 10 mM [U-^13C]or [3,4-^13C]D-glucose (Cambridge Isotope Laboratories) and 10% dialyzed FBS. […] For relative quantification of metabolites by gas chromatography-mass spectroscopy (GC-MS), cells were washed briefly with PBS, which was then fully aspirated and metabolism was quenched by immediately adding 1 mL of 80:20 methanol:water stored at −80° C. containing 20 μM deuterated 2-hydroxyglutarate (d5-2HG) as an internal standard. […]
GC-MS measurements were performed as described before^11. Ions used for quantification of metabolite levels were as follows: d5-2HG m/z 354; citrate m/z 465; alpha-ketoglutarate m/z 304; succinate m/z 247; fumarate m/z 245; malate m/z 335; aspartate m/z 232; hydroxyproline m/z 332; proline m/z 216; glutamate m/z 246; glutamine m/z 245; lactate m/z 219; pyruvate m/z 174. […]

PC activity [2]: suppressed
Substance: TGFβ: transforming growth-factor beta; TGFβ-1 purchased from Peprotech
collagen I production ([1]; 20% Gln, 48 hours): unable to proliferate and produce collagen I
GCN2 phosphorylation ([1]; low Gln (20%), 48 hours (FIG. 8J)): showed GCN2 phosphorylation
